Source: ChEMBL document CHEMBL1201862, “PubChem BioAssay data set” (2004)
Calls of active or inactive are those of the source.

Legend:
[1] = molecular target: cAMP-dependent protein kinase catalytic subunit PRKX (Homo sapiens, UniProt P51817); type: functional
[2] = molecular target: 5'-AMP-activated protein kinase catalytic subunit alpha-1 (Homo sapiens, UniProt Q13131); type: functional
Focal adhesion kinase 1 = Focal adhesion kinase 1 (Homo sapiens, UniProt Q05397); type: functional;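 note: measured as one member of a kinome panel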
[3] = molecular target: Fibroblast growth factor receptor 1 (Homo sapiens, UniProt P11362); type: functional
[4] = molecular target: Platelet-derived growth factor receptor alpha (Homo sapiens, UniProt P16234); experiment: Navigating the Kinome. Panel member name: PDGFRA; type: functional
[5] = molecular target: Mitogen-activated protein kinase kinase kinase kinase 4 (Homo sapiens, UniProt O95819); type: functional
[6] = molecular target: Dual specificity mitogen-activated protein kinase kinase 1 (Homo sapiens, UniProt Q02750); experiment: Navigating the Kinome. Panel member name: MAP2K1; type: functional
[7] = molecular target: Hepatocyte growth factor receptor (Homo sapiens, UniProt P08581); type: functional;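 note: kinase panel profiling across the kinome, with MET as the panel member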
[8] = molecular target: Ribosomal protein S6 kinase alpha-3 (Homo sapiens, UniProt P51812); type: functional;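 note: measured within a kinome-wide profiling panel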
[9] = molecular target: Mitogen-activated protein kinase 9 (Homo sapiens, UniProt P45984); type: functional;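 note: value from a kinome panel profiling assay, MAPK9 panel entry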
[10] = molecular target: Dual specificity mitogen-activated protein kinase kinase 2 (Homo sapiens, UniProt P36507); experiment: Navigating the Kinome. Panel member name: MAP2K2; type: functional
[11] = molecular target: Dual specificity protein kinase CLK4 (Homo sapiens, UniProt Q9HAZ1); type: functional
[12] = molecular target: G protein-coupled receptor kinase 5 (Homo sapiens, UniProt P34947); experiment: Navigating the Kinome. Panel member name: GPRK5; type: functional
[13] = molecular target: Calcium/calmodulin-dependent protein kinase type II subunit alpha (Homo sapiens, UniProt Q9UQM7); experiment: Navigating the Kinome. Panel member name: CAMK2A; type: functional
[14] = molecular target: Dual specificity protein kinase CLK2 (Homo sapiens, UniProt P49760); type: functional
[15] = molecular target: Serine/threonine-protein kinase PAK 4 (Homo sapiens, UniProt O96013); type: functional;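 note: value obtained within a kinome profiling panel in which PAK4 was one of the panel members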
[16] = molecular target: Death-associated protein kinase 3 (Homo sapiens, UniProt O43293); type: functional;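 note: measured as one member of a kinome-wide profiling panel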
[17] = molecular target: Leukocyte tyrosine kinase receptor (Homo sapiens, UniProt P29376); experiment: Navigating the Kinome. Panel member name: LTK; type: functional
[18] = molecular target: Tyrosine-protein kinase JAK2 (Homo sapiens, UniProt O60674); type: functional;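 note: JAK2 tested as one member of a kinase panel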
[19] = molecular target: Cyclin-dependent kinase 9 (Homo sapiens, UniProt P50750); type: functional;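 note: value from the CDK9 entry of a kinome-spanning kinase panel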
[20] = molecular target: Inhibitor of nuclear factor kappa-B kinase subunit epsilon (Homo sapiens, UniProt Q14164); experiment: Navigating the Kinome. Panel member name: IKBKE; type: functional
[21] = molecular target: Casein kinase I isoform alpha (Homo sapiens, UniProt P48729); type: functional
[22] = molecular target: Serine/threonine-protein kinase pim-1 (Homo sapiens, UniProt P11309); type: functional
[23] = molecular target: cAMP-dependent protein kinase catalytic subunit alpha (Homo sapiens, UniProt P17612); type: functional
[24] = molecular target: Dual specificity tyrosine-phosphorylation-regulated kinase 1B (Homo sapiens, UniProt Q9Y463); experiment: Navigating the Kinome. Panel member name: DYRK1B; type: functional
[25] = molecular target: Rho-associated protein kinase 1 (Homo sapiens, UniProt Q13464); type: functional;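 note: measured within a broad kinome-wide panel profiling many kinases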
[26] = molecular target: Cyclin-dependent kinase 8 (Homo sapiens, UniProt P49336); experiment: Navigating the Kinome. Panel member name: CDK8; type: functional
[27] = molecular target: Dual specificity tyrosine-phosphorylation-regulated kinase 1A (Homo sapiens, UniProt Q13627); type: functional;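 note: measured against DYRK1A as one member of a broad kinome profiling panel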
[28] = molecular target: Glycogen synthase kinase-3 beta (Homo sapiens, UniProt P49841); type: functional;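 note: value comes from a broad kinome profiling panel, with GSK3B as the panel member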
[29] = molecular target: ALK tyrosine kinase receptor (Homo sapiens, UniProt Q9UM73); type: functional;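 note: ALK tested as one member of a kinase panel screen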
[30] = molecular target: Proto-oncogene tyrosine-protein kinase receptor Ret (Homo sapiens, UniProt P07949); type: functional;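 note: measured within a kinome-wide profiling panel, RET as the panel member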
Activated CDC42 kinase 1 = Activated CDC42 kinase 1 (Homo sapiens, UniProt Q07912); experiment: Navigating the Kinome. Panel member name: ACK1; type: functional
Cytochrome P450 1A2 = molecular target: T1, Cytochrome P450 1A2 (Homo sapiens, UniProt P05177);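 note: PubChem cytochrome P450 panel assay, CYP1A2 panel member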
T1 sequence (P05177 whole entry): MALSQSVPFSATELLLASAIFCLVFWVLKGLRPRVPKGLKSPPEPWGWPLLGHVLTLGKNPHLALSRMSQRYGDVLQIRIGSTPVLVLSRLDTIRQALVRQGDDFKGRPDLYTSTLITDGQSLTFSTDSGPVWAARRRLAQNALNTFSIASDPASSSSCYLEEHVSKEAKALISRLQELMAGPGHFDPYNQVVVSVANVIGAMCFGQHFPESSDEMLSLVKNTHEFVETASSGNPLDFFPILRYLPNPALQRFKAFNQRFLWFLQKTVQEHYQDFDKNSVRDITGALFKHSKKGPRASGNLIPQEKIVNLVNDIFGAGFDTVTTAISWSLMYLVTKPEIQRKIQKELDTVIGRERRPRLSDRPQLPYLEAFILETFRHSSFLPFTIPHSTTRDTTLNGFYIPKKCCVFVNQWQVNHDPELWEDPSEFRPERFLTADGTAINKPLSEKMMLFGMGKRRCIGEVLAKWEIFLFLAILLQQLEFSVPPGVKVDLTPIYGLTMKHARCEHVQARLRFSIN

[31] = molecular target: Mast/stem cell growth factor receptor Kit (Homo sapiens, UniProt P10721); type: functional;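 note: KIT entry within a kinase panel assay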
[32] = molecular target: Glycogen synthase kinase-3 alpha (Homo sapiens, UniProt P49840); type: functional;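 note: GSK3A result taken from a broad kinome-wide kinase panel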
[33] = molecular target: Protein kinase C theta type (Homo sapiens, UniProt Q04759); experiment: Navigating the Kinome. Panel member name: PRKCQ; type: functional
[34] = molecular target: Vascular endothelial growth factor receptor 2 (Homo sapiens, UniProt P35968); type: functional
Aurora kinase A = Aurora kinase A (Homo sapiens, UniProt O14965); type: functional;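 note: value from the Navigating the Kinome kinase panel profiling, panel entry STK6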
[35] = molecular target: Mitogen-activated protein kinase 8 (Homo sapiens, UniProt P45983); type: functional;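 note: value comes from one member of a kinome-wide kinase profiling panel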
[36] = molecular target: High affinity nerve growth factor receptor (Homo sapiens, UniProt P04629); type: functional;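 note: NTRK1 tested as one member of a kinome-wide profiling panel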
Chain of High affinity nerve growth factor receptor (P04629 whole entry): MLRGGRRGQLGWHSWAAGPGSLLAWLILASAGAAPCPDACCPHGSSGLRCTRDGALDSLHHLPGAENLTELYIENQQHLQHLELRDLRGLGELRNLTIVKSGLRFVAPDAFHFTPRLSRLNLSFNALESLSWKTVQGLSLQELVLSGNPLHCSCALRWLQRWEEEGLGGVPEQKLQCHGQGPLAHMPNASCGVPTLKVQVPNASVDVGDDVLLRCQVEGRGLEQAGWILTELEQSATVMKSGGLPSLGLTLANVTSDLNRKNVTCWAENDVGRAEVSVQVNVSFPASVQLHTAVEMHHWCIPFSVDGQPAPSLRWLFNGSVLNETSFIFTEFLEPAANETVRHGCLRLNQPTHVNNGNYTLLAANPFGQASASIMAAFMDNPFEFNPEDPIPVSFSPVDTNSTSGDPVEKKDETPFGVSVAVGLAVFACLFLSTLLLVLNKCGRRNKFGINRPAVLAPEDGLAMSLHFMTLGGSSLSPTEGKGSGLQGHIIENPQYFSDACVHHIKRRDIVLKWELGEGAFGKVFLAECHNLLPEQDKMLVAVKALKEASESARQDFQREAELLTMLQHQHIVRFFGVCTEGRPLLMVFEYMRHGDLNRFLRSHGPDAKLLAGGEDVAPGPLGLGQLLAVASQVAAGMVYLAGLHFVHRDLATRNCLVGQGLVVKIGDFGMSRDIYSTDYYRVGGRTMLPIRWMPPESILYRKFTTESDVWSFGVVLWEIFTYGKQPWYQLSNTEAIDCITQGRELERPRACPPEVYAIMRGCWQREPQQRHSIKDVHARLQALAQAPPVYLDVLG

Chain of Serine/threonine-protein kinase pim-1 (P11309 whole entry): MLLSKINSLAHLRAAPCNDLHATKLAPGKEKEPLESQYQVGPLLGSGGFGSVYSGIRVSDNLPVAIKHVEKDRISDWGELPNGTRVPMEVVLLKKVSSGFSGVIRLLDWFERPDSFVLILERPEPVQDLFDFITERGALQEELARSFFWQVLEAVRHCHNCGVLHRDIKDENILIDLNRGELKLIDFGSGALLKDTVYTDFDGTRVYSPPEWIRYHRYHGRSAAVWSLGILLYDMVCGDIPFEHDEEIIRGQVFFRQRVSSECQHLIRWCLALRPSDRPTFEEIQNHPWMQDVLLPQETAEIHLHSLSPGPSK
Chain of Mitogen-activated protein kinase kinase kinase kinase 4 (O95819 whole entry): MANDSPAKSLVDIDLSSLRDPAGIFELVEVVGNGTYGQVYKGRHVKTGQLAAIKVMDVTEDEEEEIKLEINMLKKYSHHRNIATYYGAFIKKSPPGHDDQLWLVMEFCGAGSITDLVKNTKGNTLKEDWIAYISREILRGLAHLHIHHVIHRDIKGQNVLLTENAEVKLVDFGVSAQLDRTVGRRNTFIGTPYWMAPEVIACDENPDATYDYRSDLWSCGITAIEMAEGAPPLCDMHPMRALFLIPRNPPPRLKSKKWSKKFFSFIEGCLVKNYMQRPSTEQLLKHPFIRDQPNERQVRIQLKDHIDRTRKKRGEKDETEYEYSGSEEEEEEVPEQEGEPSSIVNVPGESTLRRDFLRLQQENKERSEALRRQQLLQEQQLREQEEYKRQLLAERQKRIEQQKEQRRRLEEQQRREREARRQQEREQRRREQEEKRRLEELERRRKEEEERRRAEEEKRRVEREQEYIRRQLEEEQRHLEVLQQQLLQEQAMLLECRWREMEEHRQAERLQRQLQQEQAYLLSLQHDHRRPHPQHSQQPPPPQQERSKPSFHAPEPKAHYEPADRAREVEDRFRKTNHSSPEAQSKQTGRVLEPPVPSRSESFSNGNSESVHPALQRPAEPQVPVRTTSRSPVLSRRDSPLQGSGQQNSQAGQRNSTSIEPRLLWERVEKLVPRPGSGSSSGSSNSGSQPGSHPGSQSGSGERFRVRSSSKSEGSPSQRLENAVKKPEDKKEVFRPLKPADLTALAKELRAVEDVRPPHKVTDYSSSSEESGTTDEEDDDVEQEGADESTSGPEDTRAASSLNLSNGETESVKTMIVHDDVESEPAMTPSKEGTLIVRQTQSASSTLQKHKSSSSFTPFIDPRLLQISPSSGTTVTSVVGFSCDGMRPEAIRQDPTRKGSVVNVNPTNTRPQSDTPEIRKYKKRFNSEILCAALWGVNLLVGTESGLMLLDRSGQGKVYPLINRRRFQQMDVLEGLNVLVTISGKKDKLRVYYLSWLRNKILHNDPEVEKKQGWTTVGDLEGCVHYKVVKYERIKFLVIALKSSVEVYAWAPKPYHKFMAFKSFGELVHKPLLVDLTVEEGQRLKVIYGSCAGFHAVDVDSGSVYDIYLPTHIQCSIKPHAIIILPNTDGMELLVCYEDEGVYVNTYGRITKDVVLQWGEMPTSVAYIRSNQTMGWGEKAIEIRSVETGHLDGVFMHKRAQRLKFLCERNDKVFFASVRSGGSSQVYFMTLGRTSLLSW
Chain of Ribosomal protein S6 kinase alpha-3 (P51812 whole entry): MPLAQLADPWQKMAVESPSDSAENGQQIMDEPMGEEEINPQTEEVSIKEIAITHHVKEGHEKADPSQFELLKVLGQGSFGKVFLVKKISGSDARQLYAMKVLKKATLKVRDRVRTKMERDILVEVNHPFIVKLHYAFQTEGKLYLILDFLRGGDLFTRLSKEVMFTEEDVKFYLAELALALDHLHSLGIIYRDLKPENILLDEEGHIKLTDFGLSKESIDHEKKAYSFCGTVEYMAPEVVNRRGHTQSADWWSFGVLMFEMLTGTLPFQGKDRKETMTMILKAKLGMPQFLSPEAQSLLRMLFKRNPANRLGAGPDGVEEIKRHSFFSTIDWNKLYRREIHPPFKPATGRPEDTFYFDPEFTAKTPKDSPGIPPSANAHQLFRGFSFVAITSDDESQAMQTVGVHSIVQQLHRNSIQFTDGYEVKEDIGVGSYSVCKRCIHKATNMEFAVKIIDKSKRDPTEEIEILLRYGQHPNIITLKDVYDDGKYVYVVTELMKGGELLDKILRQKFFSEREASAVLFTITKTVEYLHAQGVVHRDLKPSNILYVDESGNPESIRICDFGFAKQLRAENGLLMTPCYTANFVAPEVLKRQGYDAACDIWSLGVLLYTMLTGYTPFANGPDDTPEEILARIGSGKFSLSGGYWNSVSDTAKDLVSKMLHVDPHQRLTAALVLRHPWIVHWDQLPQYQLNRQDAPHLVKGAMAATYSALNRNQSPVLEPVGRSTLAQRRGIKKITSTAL
Chain of Inhibitor of nuclear factor kappa-B kinase subunit epsilon (Q14164 whole entry, canonical isoform): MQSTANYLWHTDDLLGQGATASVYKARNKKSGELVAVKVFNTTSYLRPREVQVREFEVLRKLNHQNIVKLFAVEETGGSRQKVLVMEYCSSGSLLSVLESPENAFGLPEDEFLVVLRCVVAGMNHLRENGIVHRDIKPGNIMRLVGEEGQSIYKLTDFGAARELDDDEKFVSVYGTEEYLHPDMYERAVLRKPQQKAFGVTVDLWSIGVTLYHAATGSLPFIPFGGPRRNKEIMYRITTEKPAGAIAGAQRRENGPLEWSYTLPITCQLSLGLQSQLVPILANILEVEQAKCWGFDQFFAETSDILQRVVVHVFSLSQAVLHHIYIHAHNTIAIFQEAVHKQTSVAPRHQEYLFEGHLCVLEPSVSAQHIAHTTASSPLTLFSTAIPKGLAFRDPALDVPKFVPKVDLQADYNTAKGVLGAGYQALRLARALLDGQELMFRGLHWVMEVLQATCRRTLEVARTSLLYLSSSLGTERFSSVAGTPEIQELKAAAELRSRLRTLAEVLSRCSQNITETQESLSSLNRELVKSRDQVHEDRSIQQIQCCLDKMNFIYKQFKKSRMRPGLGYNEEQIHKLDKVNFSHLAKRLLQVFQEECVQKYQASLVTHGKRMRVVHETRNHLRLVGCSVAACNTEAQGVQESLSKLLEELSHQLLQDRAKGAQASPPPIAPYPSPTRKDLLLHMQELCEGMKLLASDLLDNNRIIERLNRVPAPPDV
Chain of Aurora kinase A (O14965 whole entry): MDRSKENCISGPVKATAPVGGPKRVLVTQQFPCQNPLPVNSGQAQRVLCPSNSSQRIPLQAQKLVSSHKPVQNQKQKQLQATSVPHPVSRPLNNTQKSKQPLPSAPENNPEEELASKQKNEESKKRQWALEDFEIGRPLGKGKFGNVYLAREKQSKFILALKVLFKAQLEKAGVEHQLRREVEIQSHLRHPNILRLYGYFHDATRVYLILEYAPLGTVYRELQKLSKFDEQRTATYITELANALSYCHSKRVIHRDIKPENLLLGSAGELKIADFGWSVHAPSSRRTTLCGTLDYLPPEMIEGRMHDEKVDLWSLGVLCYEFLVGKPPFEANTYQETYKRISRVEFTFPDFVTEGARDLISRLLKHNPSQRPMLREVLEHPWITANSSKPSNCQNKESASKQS
Chain of Fibroblast growth factor receptor 1 (P11362 whole entry): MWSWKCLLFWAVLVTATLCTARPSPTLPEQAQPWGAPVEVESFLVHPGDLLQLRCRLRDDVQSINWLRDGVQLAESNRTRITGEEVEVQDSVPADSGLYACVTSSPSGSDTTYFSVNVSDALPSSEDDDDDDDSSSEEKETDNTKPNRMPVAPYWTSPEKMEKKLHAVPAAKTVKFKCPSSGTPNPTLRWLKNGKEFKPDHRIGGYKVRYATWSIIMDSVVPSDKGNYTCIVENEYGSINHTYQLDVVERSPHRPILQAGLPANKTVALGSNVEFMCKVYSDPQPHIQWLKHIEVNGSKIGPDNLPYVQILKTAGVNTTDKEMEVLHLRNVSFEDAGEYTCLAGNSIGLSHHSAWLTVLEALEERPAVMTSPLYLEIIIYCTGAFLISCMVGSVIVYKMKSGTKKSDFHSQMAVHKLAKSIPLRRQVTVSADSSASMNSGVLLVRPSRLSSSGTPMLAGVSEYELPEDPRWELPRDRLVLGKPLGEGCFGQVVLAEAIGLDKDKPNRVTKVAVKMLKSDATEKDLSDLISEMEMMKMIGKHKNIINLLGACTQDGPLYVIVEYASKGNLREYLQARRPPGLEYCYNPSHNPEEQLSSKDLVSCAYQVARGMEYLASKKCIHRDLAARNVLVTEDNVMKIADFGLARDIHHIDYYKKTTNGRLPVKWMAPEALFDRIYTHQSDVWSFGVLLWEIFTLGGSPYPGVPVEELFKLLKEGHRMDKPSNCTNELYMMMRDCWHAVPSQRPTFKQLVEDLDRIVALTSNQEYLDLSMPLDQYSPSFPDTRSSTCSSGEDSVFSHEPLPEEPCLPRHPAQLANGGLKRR

NC(=O)c1ccc(-c2nc(-c3ccc4c(c3)OCO4)c(-c3ccccn3)[nH]2)cc1 [SB-431542]
inactive: Ki [1] > 3.16 µM | Ki [2] > 3.16 µM | Ki (Focal adhesion kinase 1) > 6.31 µM | Ki [3] > 3.98 µM | Ki [4] > 2.51 µM | Ki [5] > 5.01 µM | Ki [6] > 3.16 µM | Ki [7] > 2.51 µM | Ki [8] > 3.98 µM | Ki [9] > 3.98 µM | Ki [10] > 3.98 µM | Ki [11] > 2.51 µM | Ki [12] > 3.98 µM | Ki [13] > 7.94 µM | Ki [14] > 3.98 µM | Ki [15] > 5.01 µM | Ki [16] > 5.01 µM | Ki [17] > 2.51 µM | Ki [18] > 2.51 µM | Ki [19] > 1.58 µM | Ki [20] > 3.16 µM | Ki [22] > 6.31 µM | Ki [23] > 1.26 µM | Ki [24] > 2.51 µM | Ki [25] > 3.98 µM | Ki [26] > 3.98 µM | Ki [27] > 2 µM | Ki [28] > 3.98 µM | Ki [29] > 6.31 µM | Ki [30] > 3.16 µM | Ki (Activated CDC42 kinase 1) > 3.98 µM | Ki [31] > 6.31 µM | Ki [32] > 3.98 µM | Ki [33] > 2.51 µM | Ki [34] > 2.51 µM | Ki (Aurora kinase A) > 1.58 µM | Ki [35] > 5.01 µM | Ki [36] > 3.16 µM
active: Ki [21] 0.1 µM
inconclusive: AC50 (Cytochrome P450 1A2) 15.8 µM
